Data taken from patent publication US7989451B2, “Tricyclic 1,2,4-triazine oxides and compositions for therapeutic use in cancer treatments” (Auckland Uniservices Limited, priority 2005, dated 2011).
Read-outs that look alike come from different tables or passages of the source.

Assays:
[1] = tested on: human colon carcinoma HT29; assay: Proliferation assay (IC50) under aerobic and hypoxic conditions, HT29; type: cell-based; conditions: for IC50: Homo sapiens, 4 h drug exposure, sulforhodamine B
Summary of the method: (§1)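 HT29 (1100) and SiHa (1500) cells in αMEM with 17 mM glucose and 100 μM 2′-dCyd, exposed 4 h at 37 °C to 3-fold dilutions under 20% O2 or anoxia (<0.001% O2). Regrowth 5 (oxic) or 6 (anoxic) days; IC50 by sulforhodamine B. HCR = IC50 aerobic/IC50 hypoxic.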

[2] = tested on: human cervical carcinoma SiHa; assay: Proliferation assay (IC50) under aerobic and hypoxic conditions, SiHa; type: cell-based; conditions: for IC50: Homo sapiens, 4 h drug exposure, sulforhodamine B
Summary of the method: as §1

[3] = tested on: hypoxic cells in HT29 tumours; assay: HT29 excision assay, single dose in combination with radiation; type: in vivo, CD-1 nude mice
Description: HT29 Excision assay. In vivo activity of single dose of compound 77 in combination with radiation. The activity of compound 77 against hypoxic cells in HT29 tumours is illustrated in FIG. 1. Subcutaneous HT29 tumours (average of two largest diameters 8-10 mm) were grown by inoculating 10^7 cells (obtained by enzymatic dissociation of multicellular spheroids) into CD-1 nude mice. Cmpd 77 was administered as a single i.p. dose (560 μmol/kg, which is 75% of the maximum tolerated dose) alone or 5 min after radiation (20 Gy). Tumours were excised 18 h after treatment and plated to determine the number of clonogens/g tumour tissue.

[4] = tested on: H460, non-small cell lung carcinoma; assay: Fractionated tumour excision assay, H460 xenograft; type: in vivo, CD-1 nude mice
Description: (§2) FIG. 3 illustrates by way of a plot the activity of fractionated dose TPZ and compound 77 against hypoxic cells in three human tumour xenograft models: H460, non-small cell lung carcinoma; HT29, human colon carcinoma; SiHa, human cervical carcinoma. Drugs (1.0× fractionated MTD) were administered 30 min before each of 8×2.5 Gy doses of radiation.
(§3) The activity of multiple doses of compound 77 and TPZ against hypoxic cells in three human tumour xenografts is illustrated in FIG. 3. Subcutaneous tumours (average of two largest diameters 8-10 mm) were grown by inoculating 10^7 cells into the midline of the back in CD-1 nude mice. Drugs were administered by i.p. injection at 100% of the MTD for twice daily (9 am, 3 pm) administration for 4 days, either alone or 30 min before each of 8×2.5 Gy local irradiation of the tumour. Tumours were excised 18 hr after treatment and plated to determine the number of clonogens/g tumour tissue. Antitumour activity is measured as logs of cell kill in addition to the cell kill observed for radiation alone.

[5] = tested on: HT29, human colon carcinoma; assay: Fractionated tumour excision assay, HT29 xenograft; type: in vivo, CD-1 nude mice
Description: as §2, §3

[6] = tested on: SiHa, human cervical carcinoma; assay: Fractionated tumour excision assay, SiHa xenograft; type: in vivo, CD-1 nude mice
Description: as §2, §3

[7] = hypoxic cytotoxicity ratio = IC50 aerobic/IC50 hypoxic
[8] = fractionated drug plus 8×2.5 Gy radiation
[9] = i.p. at 100% of MTD twice daily for 4 days, 30 min before each of 8×2.5 Gy, excised 18 hr after treatment

Structure (SMILES): [O-][n+]1nc(CCCN2CCOCC2)[n+]([O-])c2cc3c(cc21)CCC3 [Compound 77, 3-[3-(4-Morpholinyl)propyl]-7,8-dihydro-6H-indeno[5,6-e][1,2,4]triazine 1,4-Dioxide]
- IC50 ([1]; HT-29, hypoxic (anaerobic chamber, <0.001% O2), then 6 days growth, read-out: IC50 (μM) hypoxic): 2.8 ± 0.6 µM
- IC50 ([1]; HT-29, oxic (20% O2), then 5 days growth, read-out: IC50 (μM) oxic): 349 ± 62 µM
- HCR [1, 7]: 127 ± 12
- IC50 ([2]; hypoxic (anaerobic chamber, <0.001% O2), then 6 days growth, read-out: IC50 (μM) hypoxic): 1.4 ± 0.3 µM
- IC50 ([2]; oxic (20% O2), then 5 days growth, read-out: IC50 (μM) oxic): 302 ± 48 µM
- HCR [2, 7]: 223 ± 14
- Hypoxic cytotoxicity: difference in clonogens/g tumour tissue between radiation-only and radiation+drug groups ([3]; single i.p. dose 560 μmol/kg (75% of MTD) 5 min after radiation (20 Gy), tumours excised 18 h after treatment, ANOVA and Dunnett's test): statistically significant (p<0.05)
- Selectivity for hypoxic cells: activity with radiation versus as a single agent ([3]; single i.p. dose 560 μmol/kg alone or 5 min after radiation (20 Gy)): greater activity of 77 with radiation than as a single agent
- killing relative to TPZ [4, 8]: greater killing than TPZ
- log cell kill compared to radiation alone [4, 9]: significantly (P<0.05) greater log cell kill
- killing relative to TPZ [5, 8]: greater killing than TPZ
- log cell kill compared to radiation alone [5, 9]: significantly (P<0.05) greater log cell kill
- log cell kill in addition to radiation alone, 77 plus radiation relative to TPZ plus radiation ([6]; SiHa tumours, p<0.05, Student's t-test): significantly greater
- killing relative to TPZ ([6]; SiHa, fractionated drug plus 8×2.5 Gy radiation): greater killing than TPZ
- log cell kill compared to radiation alone ([6]; SiHa, i.p. at 100% of MTD twice daily for 4 days, 30 min before each of 8×2.5 Gy, excised 18 hr after treatment): significantly (P<0.05) greater log cell kill
